Key:
Assay in all cases: cells
Parameters in all cases: species or system panel of human cancer cell lines; Eurofins OncoPanel proliferation; nuclei count by high-content fluorescence imaging, 10-point dose response
[1] = system: A-253; settings: Homo sapiens, A253, 72 h, cell count, 3 days
Summary of the method: (§1)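 Ten half-log concentrations from 100 μM (0.1% DMSO max) applied one day post-seeding, 3-day exposure at 37°C; untreated time-zero plate for GI50. Readout is nuclear cell count by automated fluorescence imaging, giving EC50, IC50, GI50 and 0–10 activity area.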

[2] = system: A-673; settings: Homo sapiens, A673, 72 h, cell count, 3 days
Summary of the method: as §1

[3] = system: Caki-2; settings: Homo sapiens, CAKI-2, 72 h, cell count, 3 days
Summary of the method: as §1

[4] = system: DLD-1; settings: Homo sapiens, DLD-1, 72 h, cell count, 3 days
Summary of the method: as §1

[5] = system: EM-2; settings: Homo sapiens, EM-2, 72 h, cell count, 3 days
Summary of the method: as §1

[6] = system: Hs 229.T; settings: 72 h, cell count, 3 days
Summary of the method: as §1

[7] = system: M059J; settings: Homo sapiens, M059J, 72 h, cell count, 3 days
Summary of the method: as §1

[8] = system: MOLT-3; settings: Homo sapiens, MOLT-3, 72 h, cell count, 3 days
Summary of the method: as §1

[9] = system: NCI-H596; settings: Homo sapiens, NCI-H596, 72 h, cell count, 3 days
Summary of the method: as §1

[10] = system: RKOE6; settings: Homo sapiens, RKOE6, 72 h, cell count, 3 days
Summary of the method: as §1

[11] = system: SJRH30; settings: Homo sapiens, SJRH30, 72 h, cell count, 3 days
Summary of the method: as §1

[12] = system: SKO-007; settings: SKO-007, 72 h, cell count, 3 days
Summary of the method: as §1

[13] = system: T98G; settings: Homo sapiens, T98G, 72 h, cell count, 3 days
Summary of the method: as §1

[14] = system: TCCSUP; settings: Homo sapiens, TCC-SUP, 72 h, cell count, 3 days
Summary of the method: as §1

[15] = 50% of maximum possible response

- IC50 [4, 15]: 25.1 µM
- GI50 ([4]; corrected for time zero): 23.7 µM
- EC50 ([4]; curve inflection point): 23.9 µM
- IC50 [8, 15]: 32.4 µM
- GI50 ([8]; corrected for time zero): 19.9 µM
- EC50 ([8]; curve inflection point): 30.5 µM
- IC50 [9, 15]: > 100 µM
- GI50 ([9]; corrected for time zero): > 100 µM
- EC50 ([9]; curve inflection point): 55.5 µM
- IC50 [12, 15]: 42 µM
- GI50 ([12]; corrected for time zero): 22.3 µM
- EC50 ([12]; curve inflection point): 42 µM
SMILES: C[C@@H]1CC(=O)NN=C1c1ccc(NN=C(C#N)C#N)cc1 [levosimendan]
- IC50 [1, 15]: 62.4 µM
- GI50 ([1]; corrected for time zero): 41.7 µM
- EC50 ([1]; curve inflection point): 62.4 µM
- IC50 [2, 15]: 57.6 µM
- GI50 ([2]; corrected for time zero): 44 µM
- EC50 ([2]; curve inflection point): 57.6 µM
- IC50 [3, 15]: > 100 µM
- GI50 ([3]; corrected for time zero): > 100 µM
- EC50 ([3]; curve inflection point): > 100 µM
- IC50 [5, 15]: 25.4 µM
- GI50 ([5]; corrected for time zero): 18.6 µM
- EC50 ([5]; curve inflection point): 22.3 µM
- IC50 [6, 15]: 100 µM
- GI50 ([6]; corrected for time zero): 60.3 µM
- EC50 ([6]; curve inflection point): 100 µM
- IC50 [7, 15]: 51.5 µM
- GI50 ([7]; corrected for time zero): 38.5 µM
- EC50 ([7]; curve inflection point): 48.8 µM
- IC50 [10, 15]: 7.12 µM
- GI50 ([10]; corrected for time zero): 6.28 µM
- EC50 ([10]; curve inflection point): 6.96 µM
- IC50 [11, 15]: 11.4 µM
- GI50 ([11]; corrected for time zero): 7.7 µM
- EC50 ([11]; curve inflection point): 9.67 µM
- IC50 [13, 15]: > 100 µM
- GI50 ([13]; corrected for time zero): > 100 µM
- EC50 ([13]; curve inflection point): > 100 µM
- IC50 [14, 15]: > 100 µM
- GI50 ([14]; corrected for time zero): 94.3 µM
- EC50 ([14]; curve inflection point): > 100 µM
